Source: ChEMBL document CHEMBL3882244, “IL-8 Receptor Antagonists” (2007)

What was measured:
[1] = target: T1, C-X-C chemokine receptor type 2 (Homo sapiens, UniProt P25025); assay: Displacement of [125I]IL8 from recombinant human CXCR2 expressed in CHO cell membranes measured after 1 hr by TopCount scintillation counting method
T1 sequence (P25025 whole entry): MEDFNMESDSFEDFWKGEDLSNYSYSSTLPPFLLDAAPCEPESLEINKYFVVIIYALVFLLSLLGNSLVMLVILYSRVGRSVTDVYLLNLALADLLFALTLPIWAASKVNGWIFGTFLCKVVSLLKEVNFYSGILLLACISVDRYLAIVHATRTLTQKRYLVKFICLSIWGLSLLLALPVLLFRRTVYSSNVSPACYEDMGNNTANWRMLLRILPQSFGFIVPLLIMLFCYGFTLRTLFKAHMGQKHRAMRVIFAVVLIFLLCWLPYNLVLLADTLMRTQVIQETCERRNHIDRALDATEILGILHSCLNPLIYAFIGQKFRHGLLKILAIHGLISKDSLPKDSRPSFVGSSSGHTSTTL

[2] = target: T1, C-X-C chemokine receptor type 2; assay: Antagonist activity at CXCR2 (unknown origin) expressed in CHO-K1 cells co-expressing Galpha-16 assessed as inhibition of IL8-induced calcium mobilization measured after 10 mins by Fluo-4AM dye based FLIPR assay; format: functional, cell-based
Blood = assay: Inhibition of GROalpha-induced CD11b integrin expression on human neutrophils in human whole blood pretreated for 10 mins followed by GROalpha challenge measured after 10 mins by FITC/PE staining based flow cytometry; format: functional, tissue-based

Row | IC50 [1] [µM] | IC50 [2] [µM] | IC50 (Blood) [µM] | Structure (SMILES)
1 | – | 0.005 to 0.6 | – | O=C(Nc1cccnc1Cl)Nc1ccc(Cl)c(S(=O)(=O)C2CCNCC2)c1O
2 | – | 0.005 to 0.6 | – | CCOC(=O)N1CCC(S(=O)(=O)c2c(Cl)ccc(NC(=O)Nc3cccc(F)c3Cl)c2O)CC1
3 | < 30 | 0.005 to 0.6 | – | Cc1c(F)cccc1NC(=O)Nc1ccc(Cl)c(S(=O)(=O)C2CNC2)c1O
4 | – | 0.005 to 0.6 | – | O=C(Nc1ccc(Cl)c(S(=O)(=O)CC2CCNC2)c1O)Nc1cccc(F)c1Cl (configuration not stated)
5 | – | 0.005 to 0.6 | – | O=C(Nc1ccc(Cl)c(S(=O)(=O)[C@H]2CCNC2)c1O)Nc1cccc(F)c1Cl
6 | – | 0.005 to 0.6 | – | O=C(Nc1ccccc1OC(F)(F)F)Nc1ccc(Cl)c(S(=O)(=O)[C@@H]2CCNC2)c1O
7 | < 30 | 0.005 to 0.6 | – | O=C(Nc1ccc(Cl)c(S(=O)(=O)C2CCCNC2)c1O)Nc1cccc(Cl)c1Cl (configuration not stated)
8 | – | 0.005 to 0.6 | 0.5 to 2 | O=C(Nc1cccnc1Cl)Nc1ccc(Cl)c(S(=O)(=O)C2CCCNC2)c1O (configuration not stated)
9 | < 30 | 0.005 to 0.6 | – | Cc1c(F)cccc1NC(=O)Nc1ccc(Cl)c(S(=O)(=O)CC2CCNC2)c1O (configuration not stated)
10 | – | 0.005 to 0.6 | – | O=C(Nc1ccccc1Oc1ccccc1)Nc1ccc(Cl)c(S(=O)(=O)C2CCNCC2)c1O
11 | < 30 | – | 0.5 to 2 | O=C(Nc1cccnc1Cl)Nc1ccc(Cl)c(S(=O)(=O)[C@H]2CCCNC2)c1O
12 | – | 0.005 to 0.6 | – | O=C(Nc1ccc(Cl)c(S(=O)(=O)[C@@H]2CCNC2)c1O)Nc1cccc2c1OC(F)(F)O2
13 | – | 0.005 to 0.6 | – | O=C(Nc1ccccc1OC(F)(F)F)Nc1ccc(Cl)c(S(=O)(=O)C2CCCNC2)c1O (configuration not stated)
14 | – | 0.005 to 0.6 | – | O=C(Nc1ccc(Cl)c(S(=O)(=O)C2CNC2)c1O)Nc1cccc(F)c1Cl
15 | < 30 | 0.005 to 0.6 | – | O=C(Nc1cccnc1Cl)Nc1ccc(Cl)c(S(=O)(=O)C2CNC2)c1O
16 | < 30 | 0.005 to 0.6 | – | CCOC(=O)N1CCC(S(=O)(=O)c2c(Cl)ccc(NC(=O)Nc3ccccc3Oc3ccccc3)c2O)CC1
17 | – | 0.005 to 0.6 | 0.5 to 2 | O=C(Nc1ccc(Cl)c(S(=O)(=O)[C@H]2CCCNC2)c1O)Nc1cccc(F)c1Cl
18 | < 30 | 0.005 to 0.6 | 0.5 to 2 | O=C(Nc1ccc(Cl)c(S(=O)(=O)C2CCNCC2)c1O)Nc1cccc(F)c1Cl
19 | < 30 | 0.005 to 0.6 | 0.5 to 2 | Cc1c(F)cccc1NC(=O)Nc1ccc(Cl)c(S(=O)(=O)C2CCNCC2)c1O
20 | – | 0.005 to 0.6 | – | Cc1c(F)cccc1NC(=O)Nc1ccc(Cl)c(S(=O)(=O)[C@H]2CCNC2)c1O
21 | – | – | 0.5 to 2 | Cc1c(F)cccc1NC(=O)Nc1ccc(Cl)c(S(=O)(=O)[C@H]2CCCNC2)c1O [DANIRIXIN]

Further lines, the compound ahead of its results:

Row | Structure (SMILES) | IC50 [1] [µM] | IC50 [2] [µM] | IC50 (Blood) [µM]
22 | CCc1ccccc1NC(=O)Nc1ccc(Cl)c(S(=O)(=O)[C@@H]2CCNC2)c1O | < 30 | 0.005 to 0.6 | –
23 | O=C(Nc1ccc(Cl)c(S(=O)(=O)C2CCNCC2)c1O)Nc1cccc2c1OC(F)(F)O2 | < 30 | 0.005 to 0.6 | –
24 | O=C(Nc1ccccc1Oc1ccccc1)Nc1ccc(Cl)c(S(=O)(=O)[C@H]2CCNC2)c1O | – | 0.005 to 0.6 | 0.5 to 2
25 | O=C(Nc1ccccc1Oc1ccccc1)Nc1ccc(Cl)c(S(=O)(=O)C2C[C@H]3CC[C@@H](C2)N3)c1O (some centres not stated) | < 30 | 0.005 to 0.6 | –
26 | CCc1ccccc1NC(=O)Nc1ccc(Cl)c(S(=O)(=O)C2CCCNC2)c1O (configuration not stated) | – | 0.005 to 0.6 | –
27 | O=C(Nc1ccccc1OC(F)(F)F)Nc1ccc(Cl)c(S(=O)(=O)C2CCNCC2)c1O | – | 0.005 to 0.6 | –
28 | CCc1ccccc1NC(=O)Nc1ccc(Cl)c(S(=O)(=O)C2CCNCC2)c1O | < 30 | 0.005 to 0.6 | –
29 | CCOC(=O)N1CCC(S(=O)(=O)c2c(Cl)ccc(NC(=O)Nc3cccc(F)c3C)c2O)CC1 | – | 0.005 to 0.6 | –
30 | O=C(Nc1ccc(Cl)c(S(=O)(=O)C2C[C@H]3CC[C@@H](C2)N3)c1O)Nc1cccc(F)c1Cl (some centres not stated) | – | 0.005 to 0.6 | –
31 | Cc1c(F)cccc1NC(=O)Nc1ccc(Cl)c(S(=O)(=O)[C@@H]2C[C@H]3CC[C@@H](C2)N3C)c1O | < 30 | 0.005 to 0.6 | –
32 | O=C(Nc1cccnc1Cl)Nc1ccc(Cl)c(S(=O)(=O)C2C[C@H]3CC[C@@H](C2)N3)c1O (some centres not stated) | – | 0.005 to 0.6 | –
33 | O=C(Nc1ccccc1OC(F)(F)F)Nc1ccc(Cl)c(S(=O)(=O)CC2CCNC2)c1O (configuration not stated) | < 30 | 0.005 to 0.6 | –
34 | Cc1c(F)cccc1NC(=O)Nc1ccc(Cl)c(S(=O)(=O)C2C[C@H]3CC[C@@H](C2)N3)c1O (some centres not stated) | – | 0.005 to 0.6 | –
35 | O=C(Nc1ccc(Cl)c(S(=O)(=O)[C@@H]2CCNC2)c1O)Nc1cccc(F)c1Cl | < 30 | 0.005 to 0.6 | –
36 | O=C(Nc1cccnc1Cl)Nc1ccc(Cl)c(S(=O)(=O)[C@H]2CCNC2)c1O | – | 0.005 to 0.6 | 0.5 to 2
